Assay results as given in patent US9371320B2, “Heterocyclic compound” (TAKEDA PHARMACEUTICAL COMPANY LIMITED, priority 2012, dated 2016).

Assays:
Tyk2 = biological target: T1, Tyk2 (Homo sapiens, UniProt P29597); assay: Tyk2 enzyme inhibition test (LANCE method); type: biochemical; conditions: test compound 1 μM; for inhibition at 1 µM: read-out: Inhibitory rate (%) Tyk2 1 μM
T1 construct: purchased Invitrogen
Method: Tyk2 Enzyme Inhibition Test
(§1) Tyk2 enzyme inhibitory activity of test compounds was measured by LANCE method (PerkinElmer). First, a test compound diluted with assay buffer (50 mM HEPES (pH=7.5), 10 mM MgCl2, 1 mM EGTA, 2 mM DTT, 0.01% Tween20, 0.01% BSA) was added to 384-well plate at 2 μL each. Then, a Tyk2 (Invitrogen) solution and a fluorescence-labeled peptide substrate (ULight-JAK1, PerkinElmer) solution diluted with assay buffer at 375 ng/mL and 300 nM, respectively were added at 2 μL each. Then, enzyme reaction was started by adding 2 μL each of ATP solution prepared with assay buffer at 30 μM. After the reaction at room temperature for 1 hr, Detection Buffer (PerkinElmer) prepared to be 20 mM EDTA, 4 nM europium-labeled anti-phosphotyrosine antibody (PerkinElmer) was added at 6 μL each. After standing at room temperature for 1 hr, fluorescence intensity (excitation wavelength 340 nm, fluorescence wavelength 665 nm, delay time 100 microsecond) was measured by a plate reader, Envision (PerkinElmer). The inhibitory activity of each compound was calculated as relative value where fluorescence intensity of a well without enzyme is considered as 100% inhibition.

JAK1 = biological target: T2, JAK1 (Homo sapiens, UniProt P23458); assay: JAK1 enzyme inhibition test (LANCE method); type: biochemical; conditions: test compound 1 μM; for inhibition at 1 µM: read-out: Inhibitory rate (%) JAK1 1 μM
T2 construct: purchased Invitrogen
T2 sequence (P23458 whole entry): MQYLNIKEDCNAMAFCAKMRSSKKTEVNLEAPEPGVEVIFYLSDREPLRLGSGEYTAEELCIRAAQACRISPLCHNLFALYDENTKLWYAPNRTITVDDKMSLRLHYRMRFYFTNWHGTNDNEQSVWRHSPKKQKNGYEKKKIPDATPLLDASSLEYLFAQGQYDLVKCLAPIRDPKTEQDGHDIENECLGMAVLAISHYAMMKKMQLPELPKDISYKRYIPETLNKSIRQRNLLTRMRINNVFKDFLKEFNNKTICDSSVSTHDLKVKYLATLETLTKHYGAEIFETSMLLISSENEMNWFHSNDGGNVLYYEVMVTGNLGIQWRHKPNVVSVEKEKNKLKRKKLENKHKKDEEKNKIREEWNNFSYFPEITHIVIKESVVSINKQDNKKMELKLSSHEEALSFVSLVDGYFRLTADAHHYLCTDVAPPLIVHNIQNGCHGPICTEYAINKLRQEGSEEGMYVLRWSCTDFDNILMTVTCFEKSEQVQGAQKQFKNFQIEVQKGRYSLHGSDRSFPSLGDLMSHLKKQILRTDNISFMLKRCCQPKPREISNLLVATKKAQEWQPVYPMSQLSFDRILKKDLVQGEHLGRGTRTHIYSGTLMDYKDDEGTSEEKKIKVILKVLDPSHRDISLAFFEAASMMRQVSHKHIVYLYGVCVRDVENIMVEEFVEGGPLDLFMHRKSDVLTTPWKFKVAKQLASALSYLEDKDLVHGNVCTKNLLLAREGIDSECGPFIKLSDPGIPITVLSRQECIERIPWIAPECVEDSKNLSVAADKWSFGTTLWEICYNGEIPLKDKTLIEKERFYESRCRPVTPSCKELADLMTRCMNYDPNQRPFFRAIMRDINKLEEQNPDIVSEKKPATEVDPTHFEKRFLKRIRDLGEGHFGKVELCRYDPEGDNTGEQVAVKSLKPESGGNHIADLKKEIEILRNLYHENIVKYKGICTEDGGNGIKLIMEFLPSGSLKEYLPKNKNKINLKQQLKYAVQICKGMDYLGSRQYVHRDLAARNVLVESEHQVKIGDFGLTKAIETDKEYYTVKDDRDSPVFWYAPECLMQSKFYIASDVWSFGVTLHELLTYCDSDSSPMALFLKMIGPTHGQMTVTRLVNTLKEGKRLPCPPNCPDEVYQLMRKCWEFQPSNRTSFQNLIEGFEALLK
Method: JAK1 Enzyme Inhibition Test
as §1, with “JAK1 enzyme” for “Tyk2 enzyme”, “a JAK1” for “a Tyk2”, “at 187.5” for “at 375”, “at 150” for “at 30”

T1 sequence (P29597 whole entry): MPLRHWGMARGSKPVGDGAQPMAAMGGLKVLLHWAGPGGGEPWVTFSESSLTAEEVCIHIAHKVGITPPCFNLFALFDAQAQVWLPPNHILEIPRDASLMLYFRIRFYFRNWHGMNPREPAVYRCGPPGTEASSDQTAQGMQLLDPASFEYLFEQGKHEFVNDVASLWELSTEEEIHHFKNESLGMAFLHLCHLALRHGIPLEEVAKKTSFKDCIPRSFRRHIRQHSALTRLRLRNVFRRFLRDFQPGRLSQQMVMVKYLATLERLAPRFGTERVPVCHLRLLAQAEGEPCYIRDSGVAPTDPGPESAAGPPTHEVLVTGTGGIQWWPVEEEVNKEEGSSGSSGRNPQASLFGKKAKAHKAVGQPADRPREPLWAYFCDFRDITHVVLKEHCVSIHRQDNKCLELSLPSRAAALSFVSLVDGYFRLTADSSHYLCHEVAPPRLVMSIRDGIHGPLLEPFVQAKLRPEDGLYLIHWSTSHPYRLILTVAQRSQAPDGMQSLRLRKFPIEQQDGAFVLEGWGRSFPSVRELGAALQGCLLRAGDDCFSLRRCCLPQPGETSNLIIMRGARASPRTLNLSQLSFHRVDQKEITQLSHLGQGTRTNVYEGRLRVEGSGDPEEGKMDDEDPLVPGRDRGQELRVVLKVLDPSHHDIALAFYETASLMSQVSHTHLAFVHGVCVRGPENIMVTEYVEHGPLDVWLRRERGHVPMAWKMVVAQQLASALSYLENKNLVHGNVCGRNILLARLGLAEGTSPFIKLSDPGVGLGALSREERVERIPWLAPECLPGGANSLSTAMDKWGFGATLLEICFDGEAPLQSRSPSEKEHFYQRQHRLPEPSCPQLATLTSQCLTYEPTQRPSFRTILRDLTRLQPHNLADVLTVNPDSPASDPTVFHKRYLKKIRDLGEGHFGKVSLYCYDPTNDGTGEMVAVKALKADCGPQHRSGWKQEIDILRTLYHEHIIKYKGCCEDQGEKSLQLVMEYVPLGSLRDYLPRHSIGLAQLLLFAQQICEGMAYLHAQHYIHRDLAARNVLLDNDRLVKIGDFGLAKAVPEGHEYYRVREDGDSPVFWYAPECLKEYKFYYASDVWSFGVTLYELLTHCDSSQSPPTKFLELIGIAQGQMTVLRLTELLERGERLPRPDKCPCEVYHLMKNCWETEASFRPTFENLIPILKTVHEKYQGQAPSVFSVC

Row | SMILES | inhibition at 1 µM (Tyk2) [%] | inhibition at 1 µM (JAK1) [%] | Inhibitory rate (%) Tyk2 1 μM (Tyk2) [%] | Inhibitory rate (%) JAK1 1 μM (JAK1) [%]
1 | O=c1[nH]ccc2c1c(-c1ccccc1F)nn2C1CCCC1 [Example 56, 1-cyclopentyl-3-(2-fluorophenyl)-1,5-dihydro-4H-pyrazolo[4,3-c]pyridin-4-one] | 31 | 13 | – | –
2 | O=c1[nH]ccc2c1c(-c1ccc([N+](=O)[O-])cc1)nn2C1CCCC1 [Example 57, 1-cyclopentyl-3-(4-nitrophenyl)-1,5-dihydro-4H-pyrazolo[4,3-c]pyridin-4-one] | 81 | 88 | – | –
3 | O=C1Cc2cc(-c3nn(C4CCCC4)c4cc[nH]c(=O)c34)ccc2N1 [Example 58, 1-cyclopentyl-3-(2-oxo-2,3-dihydro-1H-indol-5-yl)-1,5-dihydro-4H-pyrazolo[4,3-c]pyridin-4-one] | 91 | 86 | – | –
4 | O=c1[nH]ccc2c1c(-c1ccc3nonc3c1)nn2C1CCCC1 [Example 59, 3-(2,1,3-benzoxadiazol-5-yl)-1-cyclopentyl-1,5-dihydro-4H-pyrazolo[4,3-c]pyridin-4-one] | 56 | 66 | – | –
5 | CNC(=O)c1cc(-c2cn(C3CCCC3)c3c(C(=O)NC)c[nH]c(=O)c23)cs1 [Example 63, 1-cyclopentyl-N-methyl-3-(5-(methylcarbamoyl)-3-thienyl)-4-oxo-4,5-dihydro-1H-pyrrolo[3,2-c]pyridine-7-carboxamide] | 51 | 59 | – | –
6 | COC(=O)c1cc(-n2nc(-c3ccccc3C)c3c(C#N)c[nH]c(=O)c32)cs1 [Example 68, methyl 4-(4-cyano-3-(2-methylphenyl)-7-oxo-6,7-dihydro-1H-pyrazolo[3,4-c]pyridin-1-yl)thiophene-2-carboxylate] | 67 | 4 | – | –
7 | Cc1ccccc1-c1nn(-c2csc(C(=O)O)c2)c2c(=O)[nH]cc(C#N)c12 [Example 69, 4-(4-cyano-3-(2-methylphenyl)-7-oxo-6,7-dihydro-1H-pyrazolo[3,4-c]pyridin-1-yl)thiophene-2-carboxylic acid] | 92 | 28 | – | –
8 | NC(=O)Cc1ccc(-c2nn(-c3c(F)cccc3F)c3cc[nH]c(=O)c23)cc1 [Example 72, 2-(4-(1-(2,6-difluorophenyl)-4-oxo-4,5-dihydro-1H-pyrazolo[4,3-c]pyridin-3-yl)phenyl)acetamide] | 99 | 97 | – | –
9 | COC(=O)c1c[nH]c(=O)c2c(-c3csc(C#N)c3)cn(C3CCCC3)c12 [Example 73, methyl 3-(5-cyano-3-thienyl)-1-cyclopentyl-4-oxo-4,5-dihydro-1H-pyrrolo[3,2-c]pyridine-7-carboxylate] | 83 | 45 | – | –
10 | COC(=O)c1c[nH]c(=O)c2c(-c3csc(-c4noc(=O)[nH]4)c3)cn(C3CCCC3)c12 [Example 74, methyl 1-cyclopentyl-4-oxo-3-(5-(5-oxo-4,5-dihydro-1,2,4-oxadiazol-3-yl)-3-thienyl)-4,5-dihydro-1H-pyrrolo[3,2-c]pyridine-7-carboxylate] | 85 | 44 | – | –
11 | COC(=O)c1cc(-c2cn(C3CCCC3)c3c(C#N)c[nH]c(=O)c23)cs1 [Example 76, methyl 4-(7-cyano-1-cyclopentyl-4-oxo-4,5-dihydro-1H-pyrrolo[3,2-c]pyridin-3-yl)thiophene-2-carboxylate] | 99 | 92 | – | –
12 | N#Cc1c[nH]c(=O)c2c(-c3ccc(C(N)=O)cc3)cn(C3CCCC3)c12 [Example 81, 4-(7-cyano-1-cyclopentyl-4-oxo-4,5-dihydro-1H-pyrrolo[3,2-c]pyridin-3-yl)benzamide] | 97 | 62 | – | –
13 | NS(=O)(=O)c1ccc(-c2nn(C3CCOC3)c3cc[nH]c(=O)c23)cc1 (stereo not drawn) [Example 82, 4-(4-oxo-1-(tetrahydrofuran-3-yl)-4,5-dihydro-1H-pyrazolo[4,3-c]pyridin-3-yl)benzenesulfonamide] | – | 95 | 78 | –
14 | NS(=O)(=O)c1ccc(-c2nn(C3CCOC3)c3cc[nH]c(=O)c23)cc1 (stereo not drawn) [Example 83, 4-(4-oxo-1-(tetrahydrofuran-3-yl)-4,5-dihydro-1H-pyrazolo[4,3-c]pyridin-3-yl)benzenesulfonamide] | – | – | 89 | 97
15 | NS(=O)(=O)c1ccc(-c2nn(C3CCOC3)c3cc[nH]c(=O)c23)cc1 (stereo not drawn) [Example 84, 4-(4-oxo-1-(tetrahydrofuran-3-yl)-4,5-dihydro-1H-pyrazolo[4,3-c]pyridin-3-yl)benzenesulfonamide] | – | – | 58 | 84

Other lines, results leading:

Row | inhibition at 1 µM (Tyk2) [%] | inhibition at 1 µM (JAK1) [%] | Inhibitory rate (%) Tyk2 1 μM (Tyk2) [%] | Inhibitory rate (%) JAK1 1 μM (JAK1) [%] | SMILES
16 | 89 | 50 | – | – | CC(=O)c1c[nH]c(=O)c2c(-c3csc(C(N)=O)c3)cn(C3CCCC3)c12 [Example 60, 4-(7-acetyl-1-cyclopentyl-4-oxo-4,5-dihydro-1H-pyrrolo[3,2-c]pyridin-3-yl)thiophene-2-carboxamide]
17 | 41 | 8 | – | – | NC(=O)c1cc(-c2cn(C3CCCC3)c3c(C(=O)O)c[nH]c(=O)c23)cs1 [Example 61, 3-(5-carbamoyl-3-thienyl)-1-cyclopentyl-4-oxo-4,5-dihydro-1H-pyrrolo[3,2-c]pyridine-7-carboxylic acid]
18 | 81 | 69 | – | – | NC(=O)c1cc(-c2cn(C3CCCC3)c3c(C(N)=O)c[nH]c(=O)c23)cs1 [Example 62, 3-(5-carbamoyl-3-thienyl)-1-cyclopentyl-4-oxo-4,5-dihydro-1H-pyrrolo[3,2-c]pyridine-7-carboxamide]
19 | 76 | 27 | – | – | N#Cc1c[nH]c(=O)c2c1c(C1CCCC1)nn2-c1csc(C(=O)O)c1 [Example 65, 4-(4-cyano-3-cyclopentyl-7-oxo-6,7-dihydro-1H-pyrazolo[3,4-c]pyridin-1-yl)thiophene-2-carboxylic acid]
20 | 92 | 66 | – | – | N#Cc1c[nH]c(=O)c2c1c(C1CCCC1)nn2-c1csc(C(N)=O)c1 [Example 66, 4-(4-cyano-3-cyclopentyl-7-oxo-6,7-dihydro-1H-pyrazolo[3,4-c]pyridin-1-yl)thiophene-2-carboxamide]
21 | 91 | 55 | – | – | NC(=O)c1cc(-n2nc(C3CCCC3)c3c(Br)c[nH]c(=O)c32)cs1 [Example 67, 4-(4-bromo-3-cyclopentyl-7-oxo-6,7-dihydro-1H-pyrazolo[3,4-c]pyridin-1-yl)thiophene-2-carboxamide]
22 | 88 | 41 | – | – | Cc1ccccc1-c1nn(-c2csc(C(N)=O)c2)c2c(=O)[nH]cc(C#N)c12 [Example 70, 4-(4-cyano-3-(2-methylphenyl)-7-oxo-6,7-dihydro-1H-pyrazolo[3,4-c]pyridin-1-yl)thiophene-2-carboxamide]
23 | 84 | 93 | – | – | NS(=O)(=O)c1ccc(-n2nc(C3CCCC3)c3cc[nH]c(=O)c32)cc1 [Example 75, 4-(3-cyclopentyl-7-oxo-6,7-dihydro-1H-pyrazolo[3,4-c]pyridin-1-yl)benzenesulfonamide]
24 | 99 | 96 | – | – | N#Cc1c[nH]c(=O)c2c(-c3csc(C(=O)O)c3)cn(C3CCCC3)c12 [Example 77, 4-(7-cyano-1-cyclopentyl-4-oxo-4,5-dihydro-1H-pyrrolo[3,2-c]pyridin-3-yl)thiophene-2-carboxylic acid]
25 | 75 | 23 | – | – | COC(=O)c1cc(-n2nc(-c3ccccc3C)c3c(Br)c[nH]c(=O)c32)cs1 [Example 78, methyl 4-(4-bromo-3-(2-methylphenyl)-7-oxo-6,7-dihydro-1H-pyrazolo[3,4-c]pyridin-1-yl)thiophene-2-carboxylate]
26 | 93 | 44 | – | – | Cc1ccccc1-c1nn(-c2csc(C(=O)O)c2)c2c(=O)[nH]cc(Br)c12 [Example 79, 4-(4-bromo-3-(2-methylphenyl)-7-oxo-6,7-dihydro-1H-pyrazolo[3,4-c]pyridin-1-yl)thiophene-2-carboxylic acid]
27 | 97 | 82 | – | – | Cc1ccccc1-c1nn(-c2csc(C(N)=O)c2)c2c(=O)[nH]cc(Br)c12 [Example 80, 4-(4-bromo-3-(2-methylphenyl)-7-oxo-6,7-dihydro-1H-pyrazolo[3,4-c]pyridin-1-yl)thiophene-2-carboxamide]
